Results: PubChem BioAssay AID248 (DTP/NCI, 2004)
Where “and” joins values, the source holds several entries; their conditions need not be identical. Identical values can stand only once. Inconclusive results and toxic doses are left out. No stated cut-off is given here; in the data, active means T/C of 150% or more; inactive means T/C below 125%.

Tested on: L1210 leukemia ip in BDF1 mice, survival T/C
Experiment: NCI In Vivo Anticancer Drug Screen. Data for tumor model L1210 Leukemia (intraperitoneal) in B6D2F1 (BDF1) mice
Details: endpoint: mean survival time, higher = longer survival
Procedure, shortened: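 Mice bearing the transplanted tumor received compound or vehicle. Survival of the treated group was divided by that of the vehicle-treated control group to give the ratio.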

[1] = dose: 50.0 mg/kg/injection, schedule: Q04DX003 (ip), vehicle: saline
[2] = dose: 100.0 mg/kg/injection, schedule: Q04DX003 (ip), vehicle: saline
[3] = dose: 200.0 mg/kg/injection, schedule: Q04DX003 (ip), vehicle: saline
[4] = dose: 400.0 mg/kg/injection, schedule: Q04DX003 (ip), vehicle: saline
[5] = dose: 100.0 mg/kg/injection, schedule: Q04DX003 (ip), vehicle: Klucel (hydroxypropylcellulose) (HPC)
[6] = dose: 200.0 mg/kg/injection, schedule: Q04DX003 (ip), vehicle: Klucel (hydroxypropylcellulose) (HPC)
[7] = dose: 400.0 mg/kg/injection, schedule: Q04DX003 (ip), vehicle: Klucel (hydroxypropylcellulose) (HPC)
[8] = dose: 100.0 mg/kg/injection, schedule: Q01DX009 (ip), vehicle: Klucel (hydroxypropylcellulose) (HPC)
[9] = dose: 200.0 mg/kg/injection, schedule: Q01DX009 (ip), vehicle: Klucel (hydroxypropylcellulose) (HPC)
[10] = dose: 400.0 mg/kg/injection, schedule: Q01DX009 (ip), vehicle: Klucel (hydroxypropylcellulose) (HPC)
[11] = dose: 100.0 mg/kg/injection, schedule: Q04DX003 (ip), vehicle: saline with Tween-80
[12] = dose: 75.0 mg/kg/injection, schedule: Q01DX001 (ip), vehicle: saline
[13] = dose: 150.0 mg/kg/injection, schedule: Q01DX001 (ip), vehicle: saline
[14] = dose: 200.0 mg/kg/injection, schedule: Q04DX003 (ip), vehicle: saline with Tween-80
[15] = dose: 400.0 mg/kg/injection, schedule: Q04DX003 (ip), vehicle: saline with Tween-80
[16] = dose: 200.0 mg/kg/injection, schedule: Q01DX001 (ip), vehicle: Klucel (hydroxypropylcellulose) (HPC)
[17] = dose: 25.0 mg/kg/injection, schedule: Q04DX003 (ip), vehicle: Klucel (hydroxypropylcellulose) (HPC)
[18] = dose: 50.0 mg/kg/injection, schedule: Q04DX003 (ip), vehicle: Klucel (hydroxypropylcellulose) (HPC)

Measured: T/C

CCN1C(=O)CC2(CCN(C)CC2)C1=O
inactive: dose: 0.78 mg/kg/injection, schedule: Q01DX009 (ip), vehicle: saline 98 % of control | dose: 1.56 mg/kg/injection, schedule: Q01DX009 (ip), vehicle: saline 102 % of control | dose: 3.12 mg/kg/injection, schedule: Q01DX009 (ip), vehicle: saline 95 % of control | dose: 6.25 mg/kg/injection, schedule: Q01DX009 (ip), vehicle: saline 117 % of control | dose: 12.5 mg/kg/injection, schedule: Q01DX009 (ip), vehicle: saline 117 % of control | dose: 25.0 mg/kg/injection, schedule: Q01DX009 (ip), vehicle: saline 98 % of control | dose: 25.0 mg/kg/injection, schedule: Q04DX003 (ip), vehicle: saline 113 % of control | dose: 50.0 mg/kg/injection, schedule: Q01DX009 (ip), vehicle: saline 104 % of control and 113 % of control | [1] 115 % of control | dose: 100.0 mg/kg/injection, schedule: Q01DX009 (ip), vehicle: saline 93 % of control and 100 % of control | [2] 105 % of control | [3] 112 % of control | dose: 400.0 mg/kg/injection, schedule: Q01DX009 (ip), vehicle: saline 93 % of control | [4] 109 % of control

CCOC(=O)CC1c2nc3ccccc3cc2CN1C(=O)OCC (stereo unspecified)
inactive: [5] 100 % of control | [6] 102 % of control | [7] 103 % of control

CC(C)N(CCC(=O)CC12CC3CC(CC(C3)C1)C2)C(C)C
inactive: dose: 25.0 mg/kg/injection, schedule: Q04DX002 (ip), vehicle: saline 92 % of control | dose: 50.0 mg/kg/injection, schedule: Q04DX002 (ip), vehicle: saline 98 % of control | dose: 100.0 mg/kg/injection, schedule: Q04DX002 (ip), vehicle: saline 95 % of control and 97 % of control

C[CH2][Sn]([CH2]C)([CH2]C)[O]C(=O)CO
inactive: dose: 3.12 mg/kg/injection, schedule: Q04DX002 (ip), vehicle: saline 93 % of control | dose: 6.25 mg/kg/injection, schedule: Q04DX002 (ip), vehicle: saline 117 % of control | dose: 12.5 mg/kg/injection, schedule: Q04DX002 (ip), vehicle: saline 104 % of control

CCN(CCC#N)C(=S)Nc1cccc2ccccc12
inactive: [8] 102 % of control | [9] 101 % of control | [10] 104 % of control

O=C1OC(c2ccccc2)(C2(c3ccccc3)OC(=O)c3ccccc32)c2ccccc21 (stereo unspecified)
inactive: dose: 25.0 mg/kg/injection, schedule: Q04DX003 (ip), vehicle: saline with Tween-80 97 % of control | dose: 50.0 mg/kg/injection, schedule: Q04DX003 (ip), vehicle: saline with Tween-80 97 % of control | [11] 90 % of control

CC(=O)Nc1ccc2c(c1)C(=O)c1ccccc1-2
inactive: [2] 96 % of control | [3] 100 % of control | [4] 94 % of control

CC(=O)OCC1OC(n2cc(C)c(=O)[nH]c2=O)C(Nc2ccc([N+](=O)[O-])cc2[N+](=O)[O-])C(OC(C)=O)C1OC(C)=O (stereo unspecified)
inactive: dose: 50.0 mg/kg/injection, schedule: Q01DX001 (ip), vehicle: carboxymethylcellulose (CMC) 97 % of control | dose: 100.0 mg/kg/injection, schedule: Q01DX001 (ip), vehicle: carboxymethylcellulose (CMC) 94 % of control | dose: 200.0 mg/kg/injection, schedule: Q01DX001 (ip), vehicle: carboxymethylcellulose (CMC) 94 % of control | dose: 400.0 mg/kg/injection, schedule: Q01DX001 (ip), vehicle: carboxymethylcellulose (CMC) 89 % of control

COc1ccc(Nc2cccc(Cl)c2)c(C(=O)O)c1
inactive: dose: 40.0 mg/kg/injection, schedule: Q01DX009 (ip), vehicle: saline 100 % of control | [12] 98 % of control | dose: 75.0 mg/kg/injection, schedule: Q01DX009 (ip), vehicle: saline 87 % of control | [13] 90 % of control | dose: 150.0 mg/kg/injection, schedule: Q01DX009 (ip), vehicle: saline 87 % of control

O=C(Nc1cccc(F)c1)Nc1ccccc1C(F)(F)F
inactive: [8] 97 % of control | [9] 91 % of control | [10] 94 % of control

CN(C)/N=N/c1ncn(C2CCCO2)c1C(N)=O (stereo unspecified)
inactive: dose: 200.0 mg/kg/injection, schedule: Q01DX005 (ip), vehicle: saline 115 % of control

Cc1ccc(N=C(N)NC#N)cc1
inactive: [11] 89 % of control | [14] 86 % of control | [15] 88 % of control

CCSC1OC(C(COC(C)=O)OC(C)=O)C(OC(C)=O)C1NC(C)=O (stereo unspecified)
inactive: dose: 50.0 mg/kg/injection, schedule: Q01DX001 (ip), vehicle: saline 103 % of control | dose: 100.0 mg/kg/injection, schedule: Q01DX001 (ip), vehicle: saline 110 % of control | dose: 200.0 mg/kg/injection, schedule: Q01DX001 (ip), vehicle: saline 97 % of control | dose: 400.0 mg/kg/injection, schedule: Q01DX001 (ip), vehicle: saline 100 % of control

C#CC(C)(C)OCC(CCl)OC(N)=O (stereo unspecified)
inactive: [1] 98 % of control | [2] 96 % of control | [3] 101 % of control | [4] 104 % of control

CC1(C)N=C(N)N=C(N)N1c1cccc(OCCCOc2ccccc2)c1
inactive: [16] 102 % of control

CCCCCCCc1cc2ccccc2c2c(N)nc(N)nc12
inactive: dose: 12.0 mg/kg/injection, schedule: Q04DX003 (ip), vehicle: Klucel (hydroxypropylcellulose) (HPC) 105 % of control | [17] 93 % of control | [18] 98 % of control | dose: 100.0 mg/kg/injection, schedule: Q01DX001 (ip), vehicle: Klucel (hydroxypropylcellulose) (HPC) 90 % of control | [5] 107 % of control | [16] 96 % of control

COc1cc(OC)c(NC(=O)c2cc3ccccc3cc2O)cc1Cl
inactive: [8] 96 % of control | [5] 101 % of control | [9] 101 % of control | [6] 101 % of control | [10] 96 % of control | [7] 111 % of control

C#CC(O)c1ccccc1 (stereo unspecified)
inactive: dose: 12.5 mg/kg/injection, schedule: Q04DX003 (ip), vehicle: Klucel (hydroxypropylcellulose) (HPC) 94 % of control | [17] 99 % of control | [18] 101 % of control

CCN(C)C(=O)Nc1cccc([N+](=O)[O-])c1
inactive: dose: 100.0 mg/kg/injection, schedule: Q04DX002 (ip), vehicle: Klucel (hydroxypropylcellulose) (HPC) 101 % of control | dose: 200.0 mg/kg/injection, schedule: Q04DX002 (ip), vehicle: Klucel (hydroxypropylcellulose) (HPC) 93 % of control | dose: 400.0 mg/kg/injection, schedule: Q04DX002 (ip), vehicle: Klucel (hydroxypropylcellulose) (HPC) 93 % of control

COc1ccc(Cl)cc1NC(=O)Oc1ccc(SC)c(C)c1
inactive: dose: 100.0 mg/kg/injection, schedule: Q01DX001 (ip), vehicle: saline with Tween-80 95 % of control | dose: 100.0 mg/kg/injection, schedule: Q01DX009 (ip), vehicle: saline with Tween-80 95 % of control | dose: 100.0 mg/kg/injection, schedule: Q04DX002 (ip), vehicle: saline with Tween-80 97 % of control and 98 % of control | dose: 200.0 mg/kg/injection, schedule: Q01DX001 (ip), vehicle: saline with Tween-80 91 % of control | dose: 200.0 mg/kg/injection, schedule: Q01DX009 (ip), vehicle: saline with Tween-80 98 % of control | dose: 200.0 mg/kg/injection, schedule: Q04DX002 (ip), vehicle: saline with Tween-80 98 % of control and 89 % of control | dose: 400.0 mg/kg/injection, schedule: Q01DX001 (ip), vehicle: saline with Tween-80 91 % of control | dose: 400.0 mg/kg/injection, schedule: Q01DX009 (ip), vehicle: saline with Tween-80 90 % of control | dose: 400.0 mg/kg/injection, schedule: Q04DX002 (ip), vehicle: saline with Tween-80 92 % of control and 98 % of control

CC(C)=C(Cl)C(C)(C)C(=O)O
inactive: [11] 103 % of control | [14] 101 % of control | [15] 97 % of control

CN1C2C=C(c3ccccc3)C(Br)C1CC2 (stereo unspecified)
inactive: dose: 20.0 mg/kg/injection, schedule: Q04DX003 (ip), vehicle: saline with Tween-80 95 % of control | dose: 40.0 mg/kg/injection, schedule: Q04DX003 (ip), vehicle: saline with Tween-80 97 % of control | [12] 102 % of control | [13] 98 % of control
